Assay results published in patent US12036199B1 (Dynamic Biologics Inc., priority 2023, dated 2024).

Columns and labels:
[1] = cited from earlier work
[2] = In vitro stability of 10 μM DB104 incubated in fresh human plasma (HRMS / LC-MS detection of DB104, intermediates and L-DOPA); format: in vitro ADME; conditions: for half-life at 10 μM: human, fresh human plasma; for degradation product of DB104 observed in human plasma: human plasma incubation of DB104
Method: (§1) 10 μM DB104 (DB104 is identified above and is one of the Derivatives of the present invention) was incubated in fresh plasma and phosphate buffer saline (PBS) in multiple aliquots, and each aliquot was divided into two equal halves at the following time points: 0, 1, 2, 4, 6, 24, 48, 72, 96, 120, 144, 168, 192, 216, 240, and 264 h. The first half was quenched with ACN:MeOH containing 1% formic acid and analyzed on the high-resolution mass spectroscopy (HRMS) to detect DB104 and all other possible intermediates. Labetalol was used as internal standard (IS). The other half was quenched with perchloric acid and analyzed on an AB Sciex 7500 mass spectrometer to detect L-DOPA. Dopamine-d4 will be used as IS.
(§2) Possible intermediates structures from the steps above are as follows:
(§3) DB104 took about 4 h and 1-4 h to get fully solubilized in human plasma and PBS, respectively. This was evident by initial increase in peak area followed by degradation. All peak area ratios were normalized to the max peak area ratio value observed. […] DB104M2 was not observed in either human plasma or PBS.

[3] = In vitro stability of 10 μM DB104 incubated in phosphate buffer saline (PBS); format: physicochemical; conditions: for half-life at 10 μM: phosphate buffer saline (PBS)
Method: as §1, §2, §3

[4] = Phase III clinical trials; cited from earlier work
[5] = cited from earlier work; remark: listed apart in the source

In the case of `C[C@@](Cc1ccc(O)c(O)c1)(NN)C(=O)O` [Carbidopa], the “reduction of the amount of levodopa required to produce a given response” value ([1]; carbidopa administered with levodopa) is given as 75%.
With `CCCCCCCCCCCCOC(=O)[C@@H](N)Cc1ccc(OC(=O)CCCCCCCCCCC)c(OC(=O)CCCCCCCCCCC)c1` [DB104, (S)-4-(2-amino-3-(dodecyloxy)-3-oxopropyl)-1,2-phenylene didodecanoate] the “time to get fully solubilized in human plasma” value ([2]; human plasma, initial increase in peak area) was “about 4 h”, the half-life at 10 μM ([2]; 10 μM DB104, fresh human plasma, 0-264 h, read-out: In vitro half-life in human plasma (converted)) was 13.1 ± 1.4 h and the half-life at 10 μM ([2]; human plasma, summary estimate, read-out: in vitro half-life estimated, human plasma (converted)) was ~12 h. For the same compound, the “time over which L-DOPA is formed at detectable amounts, PBS” value ([3]; L-DOPA formed from DB104 in PBS) was “up to 72 h”, the “time to get fully solubilized in PBS” value ([3]; PBS, initial increase in peak area) was 1 to 4 h and the half-life at 10 μM ([3]; 10 μM DB104, PBS, 0-264 h, read-out: In vitro half-life in PBS (converted)) was 12.4 ± 2.6 h. The half-life at 10 μM ([3]; PBS, summary estimate, read-out: in vitro half-life estimated, PBS (converted)) was ~12 h.
For `CCCCCCCCCCCC(=O)Oc1ccc(CC(N)C(=O)O)cc1OC(=O)CCCCCCCCCCC` (stereo not shown) [DB104M1], the “degradation product of DB104 observed in human plasma” value (from here on “degradation product … in human plasma”) [2] was “observed in PBS only” and the “degradation product of DB104 observed in PBS” value (“degradation product … in PBS” below) ([3]; PBS incubation of DB104) was “observed in PBS only”.
In the case of `CCCCCCCCCCCC(=O)Oc1cc(CC(N)C(=O)O)ccc1O` (stereo not shown) [DB104M2], the “degradation product … in human plasma” value [2] is reported as “not observed” and the “degradation product … in PBS” value ([3]; PBS incubation of DB104) is reported as “not observed”.
In the case of `CCCCCCCCCCCCOC(=O)C(N)Cc1ccc(O)c(O)c1` (stereo not shown) [DB104M3], the “degradation product … in human plasma” value [2] is reported as “observed” and the “degradation product … in PBS” value ([3]; PBS incubation of DB104) is reported as “observed”.
With `CCCCCCCCCCCCOC(=O)C(N)Cc1ccc(O)c(OC(=O)CCCCCCCCCCC)c1` (stereo not shown) [DB104M4] the “degradation product … in human plasma” value [2] was “observed”, the “degradation product … in PBS” value ([3]; PBS incubation of DB104) was “observed” and the “rank of degradant in PBS” value ([3]; PBS incubation of DB104) was “major degradant”.
For `CCOC(=O)[C@@H](N)Cc1ccc(O)c(O)c1` [Etilevodopa], the “efficacy compared with Levodopa” value [4] is listed as “less efficacious than Levodopa”.
In the case of `N[C@@H](Cc1ccc(O)c(O)c1)C(=O)O` [Levodopa, (S)-2-amino-3-(3,4-dihydroxyphenyl)propanoic acid, reference compound], the “Plasma half-life of levodopa alone” value [5] is given as ~0.833 h, the “degradation product … in human plasma” value [2] is given as “observed” and the “degradation product … in PBS” value ([3]; PBS incubation of DB104) is given as “observed”.
In the case of `CCN(CC)C(=O)/C(C#N)=C/c1cc(O)c(O)c([N+](=O)[O-])c1` [entacapone], the “increase of levodopa plasma exposure” value ([1]; 200 mg entacapone co-administered with levodopa/carbidopa) is given as 35-40%.
